Test [1] concerns NC/Nga mice. Kind of test: Prophylactic study in DNCB-induced atopic dermatitis NC/Nga mice (treatment days 1-14). The format is in vivo, mouse. Conditions: skin sections day 15. The text has this: (§1) Atopic dermatitis (AD) was induced in specific pathogen-free (SPF) female NC/Nga mice (n=8/group), 8-12 weeks old, by repeated percutaneous applications of dinitrochlorobenzene (DNCB) to the dorsal skin of the ears and back on days 4, 7, 10, and 13. NC/Nga mice are an established mouse model for atopic dermatitis. See Suto et al. NC/Nga mice: a mouse model for atopic dermatitis; Int Arch Allergy Immunol. 1999; 120 Suppl 1:70-5; and Gao et al., Establishment of allergic dermatitis in NC/Nga mice as a model for severe atopic dermatitis, Biol. Pharm. Bull. 2004 September; 27(9): 1376-81.
(§2) A prophylactic study and a therapeutic study was conducted: • 1. Prophylactic study: 0.2% formulation (C1), 0.5% formulation (C2), RVT-501 placebo, tacrolimus placebo, 0.1% tacrolimus, or no treatment (AD control) on days 1-14 or sham-induction of AD. • 2. Therapeutic study: 0.2% formulation (C1), 0.5% formulation (C2), active ingredient placebo, tacrolimus placebo, 0.1% tacrolimus, or no treatment (AD control) on days 8-14.
(§3) Scratching assays were performed on days 2, 8, 11, 14 in both studies. Skin samples were harvested for histopathology and cytokine analysis on day 15. Histopathology of sham-induced versus DNCB-induced mouse skin indicates clear presence of atopic dermatitis.

Test [2] has as its system NC/Nga mice. Kind of test: Therapeutic study in DNCB-induced atopic dermatitis NC/Nga mice (treatment days 8-14). It is filed as in vivo, mouse.
Source text: as §1, §2, §3

For `C=CC[C@@H]1/C=C(\C)C[C@H](C)C[C@H](OC)[C@H]2O[C@@](O)(C(=O)C(=O)N3CCCC[C@H]3C(=O)O[C@H](/C(C)=C/[C@@H]3CC[C@@H](O)[C@H](OC)C3)[C@H](C)[C@@H](O)CC1=O)[C@H](C)C[C@@H]2OC` [0.1% tacrolimus, tacrolimus], in the test with NC/Nga mice [1], the “AD lesions induced by DNCB at the microscopic level” value is “attenuated AD lesions”. Also, the scratching entry with NC/Nga mice [2] (day 14) is reported as “significant decrease in scratching”. Besides, the “IL-1α, IL-1β, IL-4, IL-5, IL-10, IL-12(p40), IL-13, eotaxin, GM-CSF, KC, MCP-1, MIP-1α, MIP-1β, RANTES, and TNF-α in skin” value in the test on NC/Nga mice [2] (day 15) was “significantly decreased”. Also, in the test on NC/Nga mice [2] (skin sections day 15), the AD lesion severity entry is “trended toward a reduction”.

The values above are taken from US20210093637A1, “TOPICAL OINTMENT FORMULATIONS OF PDE-4 INHIBITOR AND THEIR USE IN TREATING SKIN CONDITIONS” (Dermavant Sciences GmbH, priority 2017, published 2021).
